Patent publication US10806746B2, “Di- and tri-cationic glycosylated antitumor ether lipids, L-gucosylated gaels and rhamnose-linked gaels as cytotoxic agents against epithelial cancer cells and cancer stem cells” (The University of Manitoba, priority 2014, dated 2020)
Like-named read-outs stand apart in the source and are kept apart here.

How the values were obtained:
Format in all cases: cell-based, human
[1] = test system: DU145 cells; test: MTS viability assay, DU145 prostate cancer cells
Method: (§1) FIG. 2D. Effects of compounds 1-11 on the viability of DU145 cells. DU145 cells were cultured in DMEM medium supplemented with 10% FBS. Equal numbers were dispersed into 96-well plates. After 24 h, the cells were incubated with compounds 1-11 (0-30 μM) for 48 h. At the end of the incubation, MTS reagent (20% vol/vol) was added and the plates were incubated for 1-4 h. The OD490 was read with a plate reader. Wells with media but no cells were treated in similar fashion and the values utilized as blank. The results represent the mean±standard deviation of 6 independent determinations.
as §1, with “2H. Effect” for “2D. Effects”, “1, 69-72” for “1-11”, “1, 69-72” for “1-11 (0-30 μM)”
(§2) The cell lines were cultured from frozen stocks originally obtained from ATCC. MDA-MB-231, JIMT-1, DU145, U81, U251 cells were grown in DMEM medium. BT474, A2780s, A2780cp cells were grown in DMEM/F12 medium supplemented with 10% FBS. MiaPaCa2 was cultured in DMEM supplemented with 10% FBS and 2.5% horse serum. PC3 cells were cultured in F12K medium supplemented with 10% FBS. All the media were supplemented with penicillin/streptomycin.
(§3) The effects of the GAELs on the viability of the various epithelial cancer cell lines was determined as previously described. Briefly, equal numbers of the cells were dispersed into 96-well plates. After 24 h, the cells were incubated with the compounds (0-30 μM) for 48 h. At the end of the incubation, MTS reagent (20% vol/vol) was added and the plates were incubated for 1-4 h. The OD490 was read with a plate reader. Wells with media but no cells were treated in similar fashion and the values utilized as blank. The results represent the mean±standard deviation of 6 independent determinations.

[2] = test system: PC3 cells; test: MTS viability assay, PC3 prostate cancer cells
Method: as §1, with “2E.” for “2D.”, “PC3” for “DU145”, “F12K” for “DMEM”
as §2, §3

[3] = test system: JIMT-1 cells; test: MTS viability assay, JIMT-1 breast cancer cells
Method: as §1, with “2B.” for “2D.”, “JIMT-1” for “DU145”
as §1, with “2J.” for “2D.”, “1, 69-72” for “1-11”, “JIMT-1” for “DU145”, “1, 69-72” for “1-11 (0-30 μM)”
as §2, §3

[4] = test system: BT-474, JIMT-1, MDA-MB-231 (breast), DU145, PC3 (prostate), MiaPaCa2 (pancreas); test: MTS viability, panel of epithelial cancer cell lines (ranges over the cell lines); settings: for CC50: read-out: CC50 values, range depending on the cell line
Method: To determine the effect of compounds 1-10 on the viability of the epithelial cancer cell lines, exponentially growing cells, BT-474, JIMT-1, MDA-MB-231 (breast), DU145, PC3 (prostate), MiaPaCa2 (pancreas) were incubated with varying concentrations of 1-8 (0-30 μM) for 48 h followed by viability assays with the MTS reagent.
as §3

[5] = test system: MDA-MB-231 cells; test: MTS viability assay, MDA-MB-231 breast cancer cells
Method: as §1, with “FIG. 2A.” for “FIG. 2D.”, “of MDA-MB231” for “of DU145”, “cells. MDA-MB-231” for “cells. DU145”
as §1, with “2K.” for “2D.”, “1, 69-72” for “1-11”, “MDA-MB-231” for “DU145”, “1, 69-72” for “1-11 (0-30 μM)”
as §2, §3

[6] = Homo sapiens, DU-145, Table 5, 48 h, read-out: CC50 DU-145
[7] = Homo sapiens, DU-145, Table 5, 48 h, read-out: CC90 DU-145
[8] = Homo sapiens, PC-3, Table 5, 48 h, MTS, read-out: CC50 PC3
[9] = Homo sapiens, PC-3, Table 5, 48 h, MTS, read-out: CC90 PC3
[10] = Homo sapiens, JIMT-1, Table 5, 48 h, read-out: CC50 JIMT1
[11] = Homo sapiens, JIMT-1, Table 5, 48 h, read-out: CC90 JIMT1
[12] = Homo sapiens, range over the cell lines tested, 48 h
[13] = Homo sapiens, MDA-MB-231, Table 5, 48 h, read-out: CC50 MDA-MB-231
[14] = Homo sapiens, MDA-MB-231, Table 5, 48 h, read-out: CC90 MDA-MB-231
[15] = Table 1A, 48 h, read-out: CC50 values DU 145
[16] = Table 1B, 48 h, read-out: CC90 values DU 145
[17] = Table 1A, 48 h, MTS, read-out: CC50 values PC3
[18] = Table 1B, 48 h, MTS, read-out: CC90 values PC3
[19] = Table 1A, 48 h, read-out: CC50 values JIMT1
[20] = Table 1B, 48 h, read-out: CC90 values JIMT1
[21] = range over the cell lines tested, 48 h
[22] = Table 1A, 48 h, read-out: CC50 values MD 231
[23] = Table 1B, 48 h, read-out: CC90 values MD 231

Row | Compound | CC50 [1, 6] [µM] | CC90 [1, 7] [µM] | CC50 [2, 8] [µM] | CC90 [2, 9] [µM] | CC50 [3, 10] [µM] | CC90 [3, 11] [µM] | CC50 [4, 12] [µM] | CC50 [5, 13] [µM] | CC90 [5, 14] [µM] | CC50 [1, 15] [µM] | CC90 [1, 16] [µM] | CC50 [2, 17] [µM] | CC90 [2, 18] [µM] | CC50 [3, 19] [µM] | CC90 [3, 20] [µM] | CC50 [4, 21] [µM] | CC50 [5, 22] [µM] | CC90 [5, 23] [µM] | further results
1 | CCCCCCCCCCCCCCCCOCC(CO[C@@H]1OC(CO)[C@H](O)[C@H](O)C1N)OC (stereo partly shown) [Compound 69] | 12.5 | 16 | 12.5 | 16 | 6.5 | 11 | 6.5 to 12.5 | 11 | 17 | – | – | – | – | – | – | – | – | – | CC50 ([1]; Homo sapiens, DU-145, Table 2A, 48 h, read-out: CC50 values DU 145): 12.5 µM; CC90 ([1]; Homo sapiens, DU-145, Table 2B, 48 h, read-out: CC90 values DU 145): 16 µM; CC50 ([2]; Homo sapiens, PC-3, Table 2A, 48 h, MTS, read-out: CC50 values PC3): 12.5 µM; CC90 ([2]; Homo sapiens, PC-3, Table 2B, 48 h, MTS, read-out: CC90 values PC3): 16 µM; CC50 ([3]; Homo sapiens, JIMT-1, Table 2A, 48 h, read-out: CC50 values JIMT1): 6.5 µM; CC90 ([3]; Homo sapiens, JIMT-1, Table 2B, 48 h, read-out: CC90 values JIMT1): 11 µM; CC50 ([5]; Homo sapiens, MDA-MB-231, Table 2A, 48 h, read-out: CC50 values MDA-MB-231): 11 µM; CC90 ([5]; Homo sapiens, MDA-MB-231, Table 2B, 48 h, read-out: CC90 values MDA-MB-231): 17 µM
2 | CCCCCCCCCCCCCCCCOC[C@@H](CN=[N+]=[N-])O[C@@H]1O[C@H](CO)[C@@H](O)[C@H](O)[C@H]1N [Compound 6, 1-O-Hexadecyloxy-2R-(2′-amino-2′-deoxy-β-D-glucopyranosyl)-3-azido glycerol] | – | – | – | – | – | – | – | – | – | 12.5 | 18 | 6 | 15 | 9.5 | 13.5 | 6 to 22 | 11 | 15 | CC50 ([2]; read-out: CC50 against PC-3 cell lines): 6 µM
3 | CCCCCCCCCCCCCCCCOCCCO[C@@H]1O[C@H](CN)[C@@H](O)[C@H](O)[C@H]1N [Compound 4, 1-O-Hexadecyl-2-deoxy-3-O-(2′6′-diamino-2′,6′-dideoxy-β-D-glucopyranosyl)-sn-glycerol] | – | – | – | – | – | – | – | – | – | 6 | 8.5 | 8 | 14 | 4 | 6 | 4 to 8.5 | 4.5 | 7 | –
4 | CCCCCCCCCCCCCCCCOCC(CO[C@@H]1O[C@H](CN)[C@@H](O)[C@H](O)[C@H]1N)O[C@@H]1O[C@H](CN)[C@@H](O)[C@H](O)[C@H]1N (stereo partly drawn) [Compound 5, 1-O-Hexadecyloxy-2S/R, 3-di(-2′,6′-diamino-2′, 6′-dideoxy-β-D-glucopyranosyl)-glycerol] | – | – | – | – | – | – | – | – | – | > 30 | > 30 | > 30 | > 30 | > 30 | > 30 | > 30 | > 30 | > 30 | –
5 | CCCCCCCCCCCCCCCCOC[C@H](COC1O[C@H](CNCCCCCCCCCCCCN)[C@@H](O)[C@H](O)[C@H]1N)OC (stereo partly shown) [Compound 73, 1-O-Hexadecyl-2-O-methyl-3-O-[6′-N-(12-aminododecyl)-2′,6′-diamino-2′,6′-dideoxy-glucopyranoside]-sn-glycerol] | – | – | – | – | – | – | – | – | – | – | – | – | – | – | – | 1.5 to 4 | – | – | CC50 ([1]; Table 6, 48 h, read-out: DU145 CC50): 3.8 µM; CC90 ([1]; Table 6, 48 h, read-out: DU145 CC90): 4.8 µM; CC50 ([2]; Table 6, 48 h, MTS, read-out: PC3 CC50): 2 µM; CC90 ([2]; Table 6, 48 h, MTS, read-out: PC3 CC90): 3.2 µM; CC50 ([3]; Table 6, 48 h, read-out: JIMT1 CC50): 3.4 µM; CC90 ([3]; Table 6, 48 h, read-out: JIMT1 CC90): 4.6 µM; cytotoxicity against all cell lines examined ([4]; tricationic GAELs, FIG. 2O, Table 6): cytotoxic; CC50 ([5]; Table 6, 48 h, read-out: MB-MDA-231 CC50): 1.5 µM; CC90 ([5]; Table 6, 48 h, read-out: MB-MDA-231 CC90): 3.8 µM
6 | CCCCCCCCCCCCCCCCOC[C@H](CO[C@H]1O[C@H](CN)[C@@H](O)[C@H](O)[C@H]1N)OC [Compound 1, 1-O-Hexadecyl-2-O-methyl-3-O-(2′,6′-diamino-2′,6′-dideoxy-α-D-glucopyranosyl)-sn-glycerol] | 5.2 | 7.4 | 3.5 | 6 | 3.5 | 4.9 | 3 to 7.5 | 3 | 4.5 | – | – | – | – | – | – | – | – | – | CC50 ([1]; Homo sapiens, DU-145, Table 1A, 48 h, read-out: CC50 values DU 145): 5.2 µM; CC90 ([1]; Homo sapiens, DU-145, Table 1B, 48 h, read-out: CC90 values DU 145): 7.4 µM; CC50 ([2]; Homo sapiens, PC-3, Table 1A, 48 h, MTS, read-out: CC50 values PC3): 3.5 µM; CC90 ([2]; Homo sapiens, PC-3, Table 1B, 48 h, MTS, read-out: CC90 values PC3): 6 µM; CC50 ([3]; Homo sapiens, JIMT-1, Table 1A, 48 h, read-out: CC50 values JIMT1): 3.5 µM; CC90 ([3]; Homo sapiens, JIMT-1, Table 1B, 48 h, read-out: CC90 values JIMT1): 4.9 µM; CC90 ([4]; Homo sapiens, range over the cell lines tested, 48 h, read-out: CC90 (90% loss of cell viability), range depending on cell lines): 4.5 to 9.5 µM; CC50 ([5]; Homo sapiens, MDA-MB-231, Table 1A, 48 h, read-out: CC50 values MD 231): 3 µM; CC90 ([5]; Homo sapiens, MDA-MB-231, Table 1B, 48 h, read-out: CC90 values MD 231): 4.5 µM
